Assay results taken from US20230303481A1, “LONG-ACTING LOW-ADDICTION HNK DERIVATIVE AND PREPARATION METHOD THEREFOR” (SHENZHEN RUIJIAN BIOTECHNOLOGY CO., LTD, priority 2020, published 2023).
“Also recorded” adds a separate entry of the source. Where a name gives a salt, the structure may show the parent alone.

Tests used:
mice [1] = test: Forced swimming test (FST), immobility time; type: in vivo; conditions: for antidepressant effect: dose not given; for course of antidepressant efficacy within 7 days: 1 hour to 7 days
Method: One hour before the forced swimming test (FST), the mice were transferred to the laboratory. The test was conducted under normal light condition and monitored by a digital camera. During the test, the mice were individually placed in transparent glass cylinders (28.5 cm in height, 14 cm in diameter) filled with 20 cm height of water (23±1° C.). On the first day, the mice were trained for 6 minutes and then removed from the cylinder. On the second day, the mice were administered saline, HNK, Compound I5, Compound C, and Compound D, and after different time periods, their immobility time was tested. During the last 4 minutes of the entire 6-minute swimming test, the static time was recorded through EthoVision XT (Noldus, Netherlands) of Noldus system. The static time was defined as passive floating, that is there was no other movement except the movements necessary to keep the animal’s head above the water. After every two to three tests, the water in the cylinders was replaced. After the swimming test, the mice were removed from the water and dried under an infrared lamp.
The mice were given 1 mg (A), 10 mg (B) and 30 mg (C) of HNK and Compund I5 by intragastric administration, respectively, and their immobility time was measured after 1 hour and 7 days. The percentage of immobility time is expressed as mean ± SEM. *p<0.05, **p<0.01, compared to base test. Mice of each group was N=8. Saline: saline group; I5: Compound I5 treatment group; HNK: 2R,6R-hydroxynorketamine treatment group.

mice [2] = test: Behavioral sensitization experiment (spontaneous activity measurement); type: in vivo, Male C57BL/6J mice; conditions: 5 mg, 10 mg, 30 mg intragastric once a day for 7 days, 7 days withdrawal, challenge on day 15
Method: (§1) Animals: Male C57BL/6J mice of 8-12 weeks old were randomly divided into groups, 10 mice in each group, with body weight of 18-22 g, fed at room temperature (22±1° C.), under humidity of (50±10)%, illumination time from 8:00 to20:00. The mice had free access to food and water, and adapted to the experimental environment for at least 2-3 days before the experiments. All experiments were conducted from 8:00 to 16:00.
1.1 Small animal spontaneous activity measurement: An animal spontaneous activity infrared analysis system consists of a spontaneous activity box, an infrared probe device and a data acquisition system. The size of the spontaneous activity box is 40 cm × 40 cm × 65 cm, with sound isolation and light isolation, and mounted with a ventilation device. The activity statuses of the animals were recorded by the infrared probe, and the numbers of spontaneous activities of the animals were calculated. In order to test the effect of drugs on spontaneous activities of mice, the mice were randomly divided into 4 groups with 10 mice in each group. The Groups included: vehicle, I5, C, D (5.0, 10.0, 30.0 mg/kg), mor (10 mg/kg). The mice were administrated intragastrically once a day in the morning for 7 consecutive days; after that, the drugs withdrew for 7 days (without any treatment). On the 15th day, mice in each group were given Veh and the drugs (5.0, 10.0, 30.0 mg/kg) by intragastric administration to stimulate. Spontaneous activity of the mice within 1 hour was measured immediately after administration at d1, d7 and d15.
Statistical analysis: Experimental data were expressed as X±SEM. Graphpad software was used for statistical analysis, and t-test was used for comparison between two groups. One-way ANOVA analysis was used for comparison among multiple groups, and then LSD method was used for pairwise comparison.

mice [3] = test: Position preference (CPP) experiment, three-room system; type: in vivo, Male C57BL/6J mice; conditions: 5 mg, 10 mg, 30 mg intragastric, 6 days training, residence time in white box within 15 min
Method: as §1
1.2 CPP experiment: A three-room CPP system includes black and white boxes (25 cm × 25 cm × 30 cm) at left and right sides, separated by a middle box (10 cm × 25 cm × 30 cm). During the experiment, mice were put into the middle box and could freely move to the black and white boxes. A door with the size of 5 cm × 5 cm was arranged between the middle box and each of the black and white boxes. The experiment adopted a biased procedure, which had three stages of pre-test, training, and test stages. During the whole experiment, the environmental conditions such as light, color and smell in the boxes were guaranteed to be consistent.
Pre-test stage: On days 1-3, the spacer plates between the boxes were removed, and all mice were put into the middle box after being injected with saline subcutaneously, allowing them to move freely in the boxes for 15 min, once a day for 3 consecutive days. The residence time of the mice in the black and white boxes was respectively recorded to determine the natural preference of the mice. The mice were trained with the non-natural preference box as the companion medicine box. […]
Test stage: on day 10, the spacer plates were removed, and the mice were put into the middle box allowing to move freely. At the same time, the residence time of the mice in the white box within 15 min were recorded.
Statistical analysis: Experimental data were expressed as X±SEM. […]
Position preference was tested by a three-room system. […] After continuous training for 6 days, the test was carried out, and the residence times of the mice within 15 min in the white box were recorded. […]

[4] = Applicant's experimental studies on addiction of HNK (general statement); type: in vivo
[5] = mice, 1 mg intragastric, measured after 1 hour and 7 days

Row | Compound | antidepressant effect (immobility time, forced swimming) (mice [1]; mice, 30 mg) | antidepressant effect (mice [1]; mice) | behavioral sensitization effect on mice (mice [2]) | position preference effect on mice (mice [3]) | antidepressant effect (immobility time, forced swimming) (mice [1]; [5]) | antidepressant effect (immobility time, forced swimming) (mice [1]; mice, 10 mg intragastric) | course of antidepressant efficacy within 7 days (mice [1]; mice, 10 mg intragastric) | course of antidepressant efficacy within 7 days (mice [1]; mice, 30 mg intragastric) | antidepressant effect at the 7th day after administration (reduction in immobility time) (mice [1]; mice, compared with HNK-treated group, 10 mg and 30 mg groups) | behavioral sensitization effect on mice (mice [2]; dihydrochloride) | position preference effect on mice (mice [3]; dihydrochloride) | duration of efficacy after administration (mice [1]; general statement) | addiction [4]
1 | CN[C@@]1(c2ccccc2Cl)CCC[C@@H](OC(=O)c2ccccc2)C1=O [Compound C] | no antidepressant effect | no antidepressant effect | behavioral sensitizing effect; also recorded: behavioral sensitization effect | induced position preference |  |  |  |  |  |  |  |  | 
2 | N[C@]1(c2ccccc2Cl)CCC[C@H](OC(=O)c2ccc(CN3CCOCC3)cc2)C1=O [Compound D] | no antidepressant effect | no antidepressant effect | behavioral sensitizing effect; also recorded: behavioral sensitization effect | induced position preference |  |  |  |  |  |  |  |  | 
3 | CN(C)c1ccc(C(=O)O[C@@H]2CCC[C@@](N)(c3ccccc3Cl)C2=O)cc1 [Compound I5, (2R, 6R)-6-p-dimethylaminobenzoyloxydemethylketamine dihydrochloride] | had antidepressant effect |  |  |  | no antidepressant effect | had antidepressant effect | substantially did not decrease within 7 days | substantially did not decrease within 7 days | significant antidepressant effect | no behavioral sensitization effect; also recorded: non-sensitization effect | no position preference effect; also recorded: non-position preference effect |  | 
4 | N[C@@]1(c2ccccc2Cl)CCC[C@@H](O)C1=O [HNK, (2R,6R)-6-hydroxydemethylketamine, reference compound] | had antidepressant effect |  |  |  | no antidepressant effect | had antidepressant effect | decreased rapidly within 7 days, and substantially had no effect on the 7th day | decayed rapidly within 7 days, and substantially had no effect on the 7th day |  |  |  | basically lost activity within one week | a certain degree of addiction
